Where two headings read alike, the source gives them in different places. Where a SMILES comes first, the peptide text is derived from it. Bridges are numbered along the chain shown (N, C = ends). Where no end group is shown, it is not given here. [ ]: non-standard residue; d: D form. Orn(iPr) = CC(C)NCCC[C@H](N)C(=O)O; Dab(iPr) = CC(C)NCC[C@H](N)C(=O)O; Hyp = O=C(O)[C@@H]1C[C@@H](O)CN1; Pen = CC(C)(S)[C@H](N)C(=O)O; dDab = NCC[C@@H](N)C(=O)O; Dab = NCC[C@H](N)C(=O)O
Assays:
[1] = test system: Escherichia coli ATCC 25922
Summary of the method: (§1)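 Standardized inocula (0.5 McFarland in saline, then diluted in MHII broth to approximately 5×10^5 CFU/mL) were exposed to two-fold dilution series of each peptide in the presence of polysorbate 80 (0.002% final).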

[2] = test system: Escherichia coli MCR-1 Af 45; settings: Mueller-Hinton broth II, no visible growth after 18-20 hours at 35° C.
Summary of the method: as §1

[3] = test system: Klebsiella pneumoniae SSI3010
Summary of the method: as §1

[4] = test system: human red blood cells (hRBC); format: cell-based
Summary of the method: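 Percent lysis was derived from supernatant absorbance at 540 nm relative to full lysis by 2.5% Triton X-100 (PBS defines 0%). Compounds, 200 μg/mL, were exposed for 1 h at 37° C to a 20% (v/v) suspension of washed human red cells.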

[5] = red cells of human, 1 h, 0.2 g/L
[6] = Mueller-Hinton broth II, no visible growth after 18-20 hours at 35° C.

| Compound | Escherichia coli ATCC 25922 MIC ([1]; ATCC 25922) | Escherichia coli MCR-1 Af 45 MIC [2] | Klebsiella pneumoniae SSI3010 MIC ([3]; SSI3010) | Hemolysis at 0.2 g/L [4, 5] | Escherichia coli ATCC 25922 MIC [1, 6] | Klebsiella pneumoniae SSI3010 MIC [3, 6] | Hemolysis at 0.2 g/L [4] |
| --- | --- | --- | --- | --- | --- | --- | --- |
| CC[C@H](C)[C@H](NC(=O)[C@@H]1C[C@@H](OC)CN1C(=O)[C@@H](N)C(C)C)C(=O)N[C@H](C(=O)N[C@@H](Cc1ccc(O)cc1)C(=O)N[C@@H]1C(=O)N[C@@H](CC(N)=O)C(=O)N[C@@H](CCCNC(=N)N)C(=O)N[C@@H](CCN)C(=O)N[C@@H]([C@@H](C)O)C(=O)N[C@H](CCN)C(=O)N[C@@H](CCCCN)C(=O)N[C@H](C(=O)N[C@@H](CCN)C(=O)N[C@@H](CCCNC(=N)N)C(=O)N[C@@H](Cc2ccc(O)cc2)C(=O)O)CSSC1(C)C)[C@@H](C)O [Example 130, Val-Pro((4R)OPh)-Ile-Thr-Tyr-Pen-Asn-Arg-Dab-Thr-^DDab-Lys-Cys-Dab-Arg-Tyr] (H-V[Hyp](Me)ITY[Pen]NR[Dab]T[dDab]KC[Dab]RY-OH; disulfide 6-13) | 0.125 µg/mL | 0.125 µg/mL | 0.25 µg/mL | <1% |  |  |  |
| CC[C@H](C)[C@H](NC(=O)[C@@H]1C[C@@H](F)CN1C(=O)[C@@H](N)C(C)C)C(=O)N[C@H](C(=O)N[C@@H](Cc1ccc(O)cc1)C(=O)N[C@@H]1C(=O)N[C@@H](CC(N)=O)C(=O)N[C@@H](CCCNC(=N)N)C(=O)N[C@@H](CCN)C(=O)N[C@@H]([C@@H](C)O)C(=O)N[C@H](CCN)C(=O)N[C@@H](CCCCN)C(=O)N[C@H](C(=O)N[C@@H](CCN)C(=O)N[C@@H](CCCNC(=N)N)C(=O)N[C@@H](Cc2ccc(O)cc2)C(=O)O)CSSC1(C)C)[C@@H](C)O [Example 131, Val-Pro((4R)F)-Ile-Thr-Tyr-Pen-Asn-Arg-Dab-Thr-^DDab-Lys-Cys-Dab-Arg-Tyr] (HELM PEPTIDE1{V.[O=C([C@@H]1C[C@@H](F)CN1[*:1])[*:2]].I.T.Y.[Pen].N.R.[Dab].T.[NCC[C@@H](N[*:1])C(=O)[*:2]].K.C.[Dab].R.Y}$PEPTIDE1,PEPTIDE1,6:R3-13:R3$$$V2.0) | 0.25 µg/mL | 0.125 µg/mL | 0.5 µg/mL | <1% |  |  |  |
| CC[C@H](C)[C@H](NC(=O)[C@@H]1CCCCN1C(=O)[C@@H](N)C(C)C)C(=O)N[C@H](C(=O)N[C@@H](Cc1ccc(O)cc1)C(=O)N[C@@H]1C(=O)N[C@@H](CC(N)=O)C(=O)N[C@@H](CCCNC(=N)N)C(=O)N[C@@H](CCN)C(=O)N[C@@H]([C@@H](C)O)C(=O)N[C@H](CCN)C(=O)N[C@@H](CCCCN)C(=O)N[C@H](C(=O)N[C@@H](CCN)C(=O)N[C@@H](CCCNC(=N)N)C(=O)N[C@@H](Cc2ccc(O)cc2)C(=O)O)CSSC1(C)C)[C@@H](C)O [Example 132, Val-Pic-Ile-Thr-Tyr-Pen-Asn-Arg-Dab-Thr-^DDab-Lys-Cys-Dab-Arg-Tyr] (HELM PEPTIDE1{V.[O=C([C@@H]1CCCCN1[*:1])[*:2]].I.T.Y.[Pen].N.R.[Dab].T.[NCC[C@@H](N[*:1])C(=O)[*:2]].K.C.[Dab].R.Y}$PEPTIDE1,PEPTIDE1,6:R3-13:R3$$$V2.0) | 0.125 µg/mL | 0.125 µg/mL | 0.25 µg/mL | <1% |  |  |  |
| CC[C@H](C)[C@H](NC(=O)[C@@H]1C[C@@H](O)CN1C(=O)[C@@H](N)C(C)C)C(=O)N[C@H](C(=O)N[C@@H](Cc1ccc(O)cc1)C(=O)N[C@@H]1C(=O)N[C@@H](CC(N)=O)C(=O)N[C@@H](CCCNC(=N)N)C(=O)N[C@@H](CCNC(C)C)C(=O)N[C@@H]([C@@H](C)O)C(=O)N[C@H](CCN)C(=O)N[C@@H](CCCCN)C(=O)N[C@H](C(=O)N[C@@H](CCN)C(=O)N[C@@H](CCCNC(C)C)C(=O)N[C@@H](Cc2ccc(O)cc2)C(=O)O)CSSC1(C)C)[C@@H](C)O [Example 134, Hyp-Ile-Thr-Tyr-Pen-Asn-Arg-Dab(iPr)-Thr-^DDab-Lys-Cys-Dab-Orn(iPr)-Tyr] (H-V[Hyp]ITY[Pen]NR[Dab(iPr)]T[dDab]KC[Dab][Orn(iPr)]Y-OH; disulfide 6-13) | 0.125 µg/mL | 0.25 µg/mL | 0.5 µg/mL | 1% |  |  |  |
| CC[C@H](C)[C@H](NC(=O)[C@@H]1C[C@@H](O)CN1C(=O)[C@@H](N)C(C)C)C(=O)N[C@H](C(=O)N[C@@H](Cc1ccc(O)cc1)C(=O)N[C@@H]1C(=O)N[C@@H](CC(N)=O)C(=O)N[C@@H](CCCNC(=N)N)C(=O)N[C@@H](CCNC(C)C)C(=O)N[C@@H]([C@@H](C)O)C(=O)N[C@H](CCN)C(=O)N[C@@H](CCCCN)C(=O)N[C@H](C(=O)N[C@@H](CCNC(C)C)C(=O)N[C@@H](CCCNC(=N)N)C(=O)N[C@@H](Cc2ccc(O)cc2)C(=O)O)CSSC1(C)C)[C@@H](C)O [Example 135, Hyp-Ile-Thr-Tyr-Pen-Asn-Arg-Dab(iPr)-Thr-^DDab-Lys-Cys-Dab(iPr)-Arg-Tyr] (H-V[Hyp]ITY[Pen]NR[Dab(iPr)]T[dDab]KC[Dab(iPr)]RY-OH; disulfide 6-13) | 0.25 µg/mL | 0.25 µg/mL | 0.5 µg/mL | <1% |  |  |  |
| CC[C@H](C)[C@H](NC(=O)[C@@H]1C[C@@H](O)CN1C(=O)[C@@H](N)C(C)C)C(=O)N[C@H](C(=O)N[C@@H](Cc1ccc(O)cc1)C(=O)N[C@@H]1C(=O)N[C@@H](CC(N)=O)C(=O)N[C@@H](CCCNC(=N)N)C(=O)N[C@@H](CCN)C(=O)N[C@@H]([C@@H](C)O)C(=O)N[C@H](CCN)C(=O)N[C@@H](CCCCN)C(=O)N[C@H](C(=O)N[C@@H](CCN)C(=O)N[C@@H](CCCNC(C)C)C(=O)N[C@@H](Cc2ccc(O)cc2)C(=O)O)CSSC1(C)C)[C@@H](C)O [Example 136, Hyp-Ile-Thr-Tyr-Pen-Asn-Arg-Dab-Thr-^DDab-Lys-Cys-Dab-Orn(iPr)-Tyr] (HELM PEPTIDE1{V.[Hyp].I.T.Y.[Pen].N.R.[Dab].T.[NCC[C@@H](N[*:1])C(=O)[*:2]].K.C.[Dab].[CC(C)NCCC[C@H](N[*:1])C(=O)[*:2]].Y}$PEPTIDE1,PEPTIDE1,6:R3-13:R3$$$V2.0) | 0.125 µg/mL | 0.25 µg/mL | 0.5 µg/mL | <1% |  |  |  |
| CC[C@H](C)[C@@H]1NC(=O)[C@@H](NC(=O)[C@H](Cc2ccc(O)cc2)NC(=O)[C@@H](NC(=O)[C@@H](NC(=O)[C@@H]2C[C@@H](O)CN2C(=O)[C@@H](N)C(C)C)[C@@H](C)CC)[C@@H](C)O)C(C)(C)SSC[C@@H](C(=O)N[C@@H](CCN)C(=O)N[C@@H](CCCNC(C)C)C(=O)N[C@@H](Cc2ccc(O)cc2)C(=O)O)NC(=O)[C@H](CCCCN)NC(=O)[C@@H](CCN)NC(=O)[C@H]([C@@H](C)O)NC(=O)[C@H](CCN)NC(=O)[C@H](CCCNC(=N)N)NC1=O [Example 137, Hyp-Ile-Thr-Tyr-Pen-Ile-Arg-Dab-Thr-^DDab-Lys-Cys-Dab-Orn(iPr)-Tyr] (HELM PEPTIDE1{V.[Hyp].I.T.Y.[Pen].I.R.[Dab].T.[NCC[C@@H](N[*:1])C(=O)[*:2]].K.C.[Dab].[CC(C)NCCC[C@H](N[*:1])C(=O)[*:2]].Y}$PEPTIDE1,PEPTIDE1,6:R3-13:R3$$$V2.0) | 0.125 µg/mL | 0.125 µg/mL | 0.25 µg/mL | <1% |  |  |  |
| CC[C@H](C)[C@H](NC(=O)[C@@H]1C[C@@H](O)CN1C(=O)[C@@H](N)C(C)C)C(=O)N[C@H](C(=O)N[C@@H](Cc1ccc(O)cc1)C(=O)N[C@@H]1C(=O)N[C@@H](CC(N)=O)C(=O)N[C@@H](CCCNC(=N)N)C(=O)N[C@@H](CCN)C(=O)N[C@@H]([C@@H](C)O)C(=O)N[C@H](CCNC(C)C)C(=O)N[C@@H](CCCCN)C(=O)N[C@H](C(=O)N[C@@H](CCN)C(=O)N[C@@H](CCCNC(=N)N)C(=O)N[C@@H](Cc2ccc(O)cc2)C(=O)O)CSSC1(C)C)[C@@H](C)O [Example 138, Hyp-Ile-Thr-Tyr-Pen-Asn-Arg-Dab-Thr-^DDab(iPr)-Lys-Cys-Dab-Arg-Tyr] (HELM PEPTIDE1{V.[Hyp].I.T.Y.[Pen].N.R.[Dab].T.[CC(C)NCC[C@@H](N[*:1])C(=O)[*:2]].K.C.[Dab].R.Y}$PEPTIDE1,PEPTIDE1,6:R3-13:R3$$$V2.0) | 0.125 µg/mL | 0.125 µg/mL | 0.5 µg/mL | <1% |  |  |  |
| V[Hyp]ITY[Pen]NR[Dab]T[dDab]NC[Dab]RY (cysteine pairing not given here) [Example 40] |  | 0.25 µg/mL |  |  | 0.25 µg/mL | 0.5 µg/mL | 0% |
| Val-NalloThr-Ile-Thr-Tyr-Pen-Asn-Arg-Dab-Thr-^DDab-Lys-Cys-Dab-Arg-Tyr [Example 133] |  | 0.25 µg/mL |  |  | 0.25 µg/mL | 0.5 µg/mL | <1% |

— patent publication US20240228555A9, “ANTIMICROBIAL PEPTIDOMIMETICS” (Basilea Pharmaceutica International AG, Allschwil, priority 2020, published 2024)
